For four compounds, IC50 results are on record in ChEMBL document CHEMBL1147661, “The first potent inhibitor of mammalian group X secreted phospholipase A2: elucidation of sites for enhanced binding” (J Med Chem, 2006).

The target in assay [1] is Phospholipase A2 (Mus musculus, UniProt Q9Z0Y2). Kind of assay: Inhibition of mouse recombinant sPLA2 G1B.
The target in assay [2] is Phospholipase A2 (Homo sapiens, UniProt P04054). Kind of assay: Inhibition of human recombinant sPLA2 G1B.
The target of assay [3] is T1, Group 10 secretory phospholipase A2 (Homo sapiens, UniProt O15496).
T1 sequence (O15496 whole entry): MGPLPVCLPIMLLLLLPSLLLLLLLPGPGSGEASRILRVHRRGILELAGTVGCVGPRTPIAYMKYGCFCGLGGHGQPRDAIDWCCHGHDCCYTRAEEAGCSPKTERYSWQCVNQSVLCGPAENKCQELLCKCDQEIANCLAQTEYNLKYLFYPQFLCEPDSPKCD
Kind of assay: Inhibition of human recombinant sPLA2 G10.

For assay [4], the target named is T2, Group 10 secretory phospholipase A2 (Mus musculus, UniProt Q9QXX3).
T2 sequence (Q9QXX3 whole entry): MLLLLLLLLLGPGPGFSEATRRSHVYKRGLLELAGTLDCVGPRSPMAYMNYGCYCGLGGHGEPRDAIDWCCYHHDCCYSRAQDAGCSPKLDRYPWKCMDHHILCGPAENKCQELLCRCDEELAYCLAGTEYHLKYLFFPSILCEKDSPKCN
Kind of assay: Inhibition of mouse recombinant sPLA2 G10.

Assay [5] addresses T3, Group IIE secretory phospholipase A2 (Mus musculus, UniProt Q9QUL3).
T3 sequence (Q9QUL3 whole entry): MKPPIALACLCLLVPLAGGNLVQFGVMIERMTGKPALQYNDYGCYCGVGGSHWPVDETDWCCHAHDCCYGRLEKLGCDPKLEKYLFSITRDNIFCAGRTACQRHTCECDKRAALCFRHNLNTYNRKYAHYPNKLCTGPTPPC
Kind of assay: Inhibition of mouse recombinant sPLA2 G2E.

In assay [6] the target is T4, Phospholipase A2 group V (Mus musculus, UniProt P97391).
T4 sequence (P97391 whole entry): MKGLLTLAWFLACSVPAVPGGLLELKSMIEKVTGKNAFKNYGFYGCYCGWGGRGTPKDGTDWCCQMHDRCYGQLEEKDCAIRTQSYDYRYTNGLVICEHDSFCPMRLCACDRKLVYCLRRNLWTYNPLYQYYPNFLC
Kind of assay: Inhibition of mouse recombinant sPLA2 G5.

Assay [7] has as its target T5, Phospholipase A2, membrane associated (Mus musculus, UniProt P31482).
T5 sequence (P31482 whole entry): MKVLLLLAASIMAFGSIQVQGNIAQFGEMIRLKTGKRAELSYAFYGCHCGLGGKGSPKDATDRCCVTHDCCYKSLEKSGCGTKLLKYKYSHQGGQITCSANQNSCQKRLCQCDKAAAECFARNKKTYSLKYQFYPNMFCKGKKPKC
Kind of assay: Inhibition of mouse recombinant sPLA2 G2A.

Assay [8] deals with T6, Group IIE secretory phospholipase A2 (Homo sapiens, UniProt Q9NZK7).
T6 sequence (Q9NZK7 whole entry): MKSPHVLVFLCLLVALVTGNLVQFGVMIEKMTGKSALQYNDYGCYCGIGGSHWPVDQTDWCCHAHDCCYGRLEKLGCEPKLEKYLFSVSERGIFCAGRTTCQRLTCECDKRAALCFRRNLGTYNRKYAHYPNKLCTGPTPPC
Kind of assay: Inhibition of human recombinant sPLA2 G2E.

In assay [9] the target is T7, Phospholipase A2 group V (Homo sapiens, UniProt P39877).
T7 sequence (P39877 whole entry): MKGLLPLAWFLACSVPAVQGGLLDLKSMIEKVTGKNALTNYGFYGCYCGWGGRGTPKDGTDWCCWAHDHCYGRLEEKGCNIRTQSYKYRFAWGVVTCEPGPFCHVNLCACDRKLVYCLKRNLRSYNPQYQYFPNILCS
Kind of assay: Inhibition of human recombinant sPLA2 G5.

The target in assay [10] is T8, Phospholipase A2, membrane associated (Homo sapiens, UniProt P14555).
T8 sequence (P14555 whole entry): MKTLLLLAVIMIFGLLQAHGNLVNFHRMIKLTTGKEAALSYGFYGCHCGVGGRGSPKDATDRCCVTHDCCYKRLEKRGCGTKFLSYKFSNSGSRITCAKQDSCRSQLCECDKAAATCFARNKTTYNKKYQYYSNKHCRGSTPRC
Kind of assay: Inhibition of human recombinant sPLA2 G2A.

SMILES strings stand for the structures.

Chain of Phospholipase A2 (Homo sapiens, UniProt P04054) (P04054 whole entry): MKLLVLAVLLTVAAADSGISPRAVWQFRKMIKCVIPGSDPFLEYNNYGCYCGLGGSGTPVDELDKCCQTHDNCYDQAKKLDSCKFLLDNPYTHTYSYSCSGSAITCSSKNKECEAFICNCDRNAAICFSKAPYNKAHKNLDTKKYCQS
Chain of Phospholipase A2 (Mus musculus, UniProt Q9Z0Y2) (Q9Z0Y2 whole entry): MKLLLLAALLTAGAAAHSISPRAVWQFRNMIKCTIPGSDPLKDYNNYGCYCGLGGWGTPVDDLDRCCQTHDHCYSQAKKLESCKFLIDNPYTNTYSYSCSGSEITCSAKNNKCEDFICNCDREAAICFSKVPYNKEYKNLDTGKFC

A word on the IC50: it is the concentration that inhibits the measured activity by half. For the compound `Cc1c(C(=O)C(N)=O)c2c(OCC(=O)O)cccc2n1Cc1ccccc1`, the IC50 on Phospholipase A2 [1] turned out to be 2200 nM; on Phospholipase A2 [2], 2500 nM; in [3] it was 2000 nM; in [4] it was 2500 nM; in [5], 400 nM; at Phospholipase A2 group V [6], 1000 nM. Further, the IC50 was 125 nM in [7], 75 nM in assay [8], 800 nM at Phospholipase A2 group V [9] and 275 nM in assay [10].
On to `CCc1c(C(=O)C(N)=O)c2c(OCC(=O)O)cccc2n1Cc1ccccc1` [VARESPLADIB], for which the IC50 is 140 nM on Phospholipase A2 [1]; 750 nM on Phospholipase A2 [2]; 75 nM in assay [4]; 75 nM in assay [5]; 750 nM on Phospholipase A2 group V [6]; 70 nM in assay [7]. For the same compound, the IC50 turned out to be 50 nM in [8] and 500 nM at Phospholipase A2 group V [9].
For the compound `Cc1cc(OCC(=O)O)c2c(C(=O)C(N)=O)c(C)n(Cc3ccccc3)c2c1`, the IC50 was determined as 2000 nM on Phospholipase A2 [1]; 2000 nM on Phospholipase A2 [2]; 2200 nM in assay [3]; 2500 nM in [4]; 400 nM in assay [5]; 850 nM on Phospholipase A2 group V [6]. Besides, the IC50 in [7] is 125 nM; in [8], 125 nM; on Phospholipase A2 group V [9] it was 800 nM; in assay [10], 300 nM.
Consider `CCc1c(C(=O)C(N)=O)c2c(OCC(=O)O)cc(C)cc2n1Cc1ccccc1`, for which the IC50 on Phospholipase A2 [1] came to 200 nM; on Phospholipase A2 [2] it was 800 nM; in assay [5] it was 75 nM; in [8], 50 nM; in assay [10], 125 nM.
